This note sets out measurements from publication PMC12814185, “Receptor-Mediated Shuttling of a D‑Amino Acid Peptide Achieves High Nanomolar Cytosolic Concentrations” (Journal of the American Chemical Society, 2025).

The subject of the series is HEK293 cells. Put plainly: Resazurin based cell viability assay, Nutlin-3a. Particulars: 72 h incubation, HEK293 and HEK293_CMKLR1-eYFP. The method, then: performed in DMEM with 10% FBS due to its higher pH buffering capacity compared to DMEM/F12 with […]
Calcium flux assay was performed with cells expressing CMKLR1 and the chimeric G protein Δ6Gαqi4myr.
The stably transfected COS-7_CMKLR1-eYFP_ Δ6Gαqi4myr cells were seeded at 25,000 cells per well into poly-ᴅ-lysine-coated 96-well plates (black µCLEAR, Greiner). The next day, cells were incubated with 2.3 µM Fluo-2-AM (Abcam) and 0.06% (v/v) Pluronic-F127 (Sigma) in assay buffer (2.5 mM probenecid (Sigma), 20 mM 4-(2-hydroxyethyl)-1-piperazineethanesulfonic acid (HEPES, Sigma) in Hanks' Balanced Salt Solution (HBSS, Biowest), pH 7.5) for 1 h. This solution was replaced by assay buffer, and basal Ca2+ signal (λex = 485 nm, λem = 525 nm) was measured for 20 s with a Flexstation 3 plate reader (Molecular Devices). Peptide dilutions were added, and the Ca2+ response was measured for 40 s. The maximum signal over baseline was calculated and normalized to peptide 1 (N3-cC9). Non-linear regression was performed using Prism 10 (GraphPad). Experiments were performed in technical duplicates and at least […]
Cells were then washed and a resazurin-based cell viability assay was performed. […] After 2h incubation, cell viability wa s measured using the fluorescence of resorufin (λex = 550 nm, λem = 595 nm). […]
Peptide internalization was evaluated by fluorescence microscopy. […]
Background: Resazurin is reduced to fluorescent resorufin, in cell work by metabolically active cells.

Structures are written as SMILES.

For `COc1ccc(C2=N[C@@H](c3ccc(Cl)cc3)[C@@H](c3ccc(Cl)cc3)N2C(=O)N2CCNC(=O)C2)c(OC(C)C)c1` [nutlin-3a], the cytotoxicity entry is recorded as “noncytotoxic response”.
